From patent US9771368B2, “18F-labelled folates” (priority 2007, dated 2017)

What was measured:
[1] = molecular target: T1, folate receptor (Homo sapiens, UniProt P15328); assay: ex vivo biodistribution studies in nude mice bearing KB xenografts tumors; conditions: nude mice, KB xenograft tumors; ~2 MBq radiotracer; blockade group 200 μg natural folic acid 10 min prior; 90 min post injection
T1 construct: endogenous in cells; host or cells: KB tumour xenografts in nude mice
Method: (§1) 2′-[^18F]fluoro-folic acid was applied in ex vivo biodistribution studies using eight nude mice bearing KB xenografts tumors. ˜2 MBq of the radiotracer were injected into each animal. In a blockade group 200 μg natural folic acid was injected 10 min prior to the radiotracer. The animals were scarified 90 min post injection.

[2] = tested on: folate receptor; assay: as above
Method: as §1

[3] = tested on: folate receptor; assay: in vivo PET imaging in nude mice bearing KB xenografts tumors
Method: In vivo PET imaging using the 2′-[^18F]fluoro-folic acid was performed in nude mice bearing KB xenografts tumors. Ca. 10 MBq of the radiotracer were injected into each animal. In the blockade group 200 μg natural folic acid was injected 10 min prior to the radiotracer. The PET scans were acquired from 30 min to 90 min post injection.

T1 sequence (P15328 25-234 limits assumed): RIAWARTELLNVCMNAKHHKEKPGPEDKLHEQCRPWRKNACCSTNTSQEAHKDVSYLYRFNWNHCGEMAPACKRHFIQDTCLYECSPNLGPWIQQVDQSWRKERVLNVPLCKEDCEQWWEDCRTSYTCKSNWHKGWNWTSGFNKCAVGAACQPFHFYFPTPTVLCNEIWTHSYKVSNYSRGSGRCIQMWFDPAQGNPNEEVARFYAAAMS

- specific uptake of the radiotracer in folate receptor-positive KB tumors, ratio of specific blockade [1]: 86.6%
- uptake in folate receptor-positive tissues (FIG. 1) ([2]; ex vivo biodistribution, nude mice bearing KB xenografts): high specific uptake
- uptake of the radiotracer in the kidney cortex ([3]; PET, kidney cortex, 30-90 min post injection): high specific uptake
- uptake of the radiotracer in the kidney medulla ([3]; PET, kidney medulla, 30-90 min post injection): no uptake
SMILES: Nc1nc2ncc(CNc3ccc(C(=O)N[C@@H](CCC(=O)O)C(=O)O)c([18F])c3)nc2c(=O)[nH]1 [2′-[^18F]fluoro-folic acid]
- specific uptake in the kidneys, specific blockade ([2]; nude mice, kidneys, ~2 MBq radiotracer, blockade group 200 μg natural folic acid 10 min prior, 90 min post injection): 95.5%
- specificity of uptake (blockade by natural folic acid) ([3]; ca. 10 MBq, blockade group 200 μg natural folic acid 10 min prior, PET 30-90 min post injection): highly specific and blocked by natural folic acid
